These results are taken from patent US20080254023A1, “Treating Gliosis, Glial Scarring, Inflammation or Inhibition of Axonal Growth in the Nervous System by Modulating Eph Receptor” (THE UNIVERSITY OF QUEENSLAND, priority 2004, published 2008).

Common to all, as to assay type: cell-based, mice
In assay [1] the test system is EphA4. In words: EphA4 expression in cultured astrocytes (Western analysis). Conditions: 72 hrs, compared with untreated controls. How it is done: (§1) For biochemical analysis of astrocytes, factors as indicated were added to 80% confluent monolayers in 10 cm plates (Falcon, USA) for the times indicated. EphrinA5-Fc (available from the inventors) was pre-complexed as above.
(§2) Cells were lysed and a sample kept aside for analysis of total protein levels. The remainder of the lysate was used for immunoprecipitation in EphA4 or Rho activation assays. EphA4 activation was determined by immunoprecipitation of phosphorylated proteins using anti-phosphotyrosine (Cell Signaling), followed by Western transfer and detection of activated or total EphA4 using a rabbit anti-EphA4 antibody (kindly provided by Dr. D. Wilkinson, National Institute for Medical Research, London). Rho activation assays were performed using the Rhotekin RBD assay, according to the manufacturer's instructions (Upstate, USA). Total EphA4 and β-actin expression levels were determined in non-lesioned and 7 d post-lesioned spinal cords by Western analysis using rabbit anti-EphA4 antibody as above and mouse anti-β-actin antibody (Sigma). Densitometry was performed on the autoradiographs using NIH Image software to determine relative levels of the EphA4 bands and normalized to β-actin levels.

A further assay has as its system astrocytes. In words: In vitro astrocyte proliferation assay (MTT). Conditions: up to 72 hrs, LIF 1000 U/ml, IFN-γ 100 U/ml; for proliferation of WT astrocytes: wildtype astrocytes. How it is done: The [3-(4,5-dimethylthiazol-2-yl)-2,5-diphenyl]tetrazolium bromide (MTT) assay, which determines mitochondrial activity in living cells, is commonly used as a proliferation assay (Mosmann, J Immunol Methods 65:55-63, 1983). Living cells transform the tetrazolium ring into dark blue formazan crystals, which can be quantified by reading the optical density (O.D.); an increase in O.D. correlates with an increase in cell number over time. Wildtype and EphA4−/− astrocytes were plated on 96 well plates (Falcon) at 3×10^3 cells/well in DMEM supplemented with 10% FCS in the presence or absence of either LIF (1000 U/ml) or IFN-γ (100 U/ml). The MTT assay was performed at 2, 24, 48 and 72 hours after plating. MTT (0.25 mg/ml) was incubated with the cells at each timepoint for 2 hours at 37° C., the cells were then lysed with an equal volume of acidic isopropanol (0.04M HCL in absolute isopropanol) and the O.D. of the formazan product was measured at 550-650 nm.

The test system of a further assay is Rho. As to the kind of experiment: Rho activation in cultured astrocytes (Rhotekin RBD assay). How it is done:
as §1, §2

The target of assay [2] is T1, EphA4 (Mus musculus, UniProt Q03137).
T1 construct: chamber slides (Falcon, USA) containing wildtype or EphA4−/− astrocyte monolayers; endogenous in cells; host or cells: primary purified astrocyte cultures from wildtype mice
In words: EphA4 phosphorylation in cultured astrocytes (anti-phosphotyrosine immunoprecipitation, Western). Here is the method:
as §1, §2

T1 sequence (Q03137 20-986): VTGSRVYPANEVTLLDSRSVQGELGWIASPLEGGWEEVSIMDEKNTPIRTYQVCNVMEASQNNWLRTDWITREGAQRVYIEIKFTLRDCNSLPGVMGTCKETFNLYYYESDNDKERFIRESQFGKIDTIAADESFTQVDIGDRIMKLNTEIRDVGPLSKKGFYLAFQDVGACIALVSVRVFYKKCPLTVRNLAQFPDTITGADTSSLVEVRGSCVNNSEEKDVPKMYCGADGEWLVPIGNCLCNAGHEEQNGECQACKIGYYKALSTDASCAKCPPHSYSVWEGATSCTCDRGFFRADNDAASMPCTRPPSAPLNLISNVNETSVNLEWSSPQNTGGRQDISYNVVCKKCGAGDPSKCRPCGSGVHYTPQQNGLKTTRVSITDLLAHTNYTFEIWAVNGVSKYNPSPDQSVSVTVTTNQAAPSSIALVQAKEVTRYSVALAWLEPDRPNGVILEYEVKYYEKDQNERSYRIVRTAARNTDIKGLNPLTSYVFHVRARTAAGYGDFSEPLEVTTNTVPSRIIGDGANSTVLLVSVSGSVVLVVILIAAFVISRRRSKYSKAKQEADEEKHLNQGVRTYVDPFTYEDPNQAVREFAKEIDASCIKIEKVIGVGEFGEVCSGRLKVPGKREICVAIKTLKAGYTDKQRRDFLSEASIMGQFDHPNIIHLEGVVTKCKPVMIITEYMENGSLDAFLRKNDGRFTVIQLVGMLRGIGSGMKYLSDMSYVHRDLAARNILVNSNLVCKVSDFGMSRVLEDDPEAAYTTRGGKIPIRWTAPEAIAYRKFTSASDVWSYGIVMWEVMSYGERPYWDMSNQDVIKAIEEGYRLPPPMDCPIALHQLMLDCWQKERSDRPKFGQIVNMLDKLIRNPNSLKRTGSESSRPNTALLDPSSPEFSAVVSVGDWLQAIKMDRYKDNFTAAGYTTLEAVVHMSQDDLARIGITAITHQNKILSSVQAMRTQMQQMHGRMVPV

In the case of “IFNγ: Interferon-γ, inflammatory cytokine, inducer of astrocytic gliosis”, in the assay on EphA4 [1], the “upregulation of EphA4 expression on astrocytes” value (“upregulation of EphA4 expression” below) stood at 56%. In addition, in the assay with astrocytes, the “proliferation response of EphA4−/− astrocytes” value was “markedly decreased” and the “proliferation of WT astrocytes” value is “increased proliferation”. The “Rho activation (RhoGTP) in EphA4−/− astrocytes” value in the assay with Rho (EphA4−/− astrocytes in culture) is listed as “not”. For the same molecule, in the assay on Rho (wildtype astrocytes in culture), the “Rho activation (RhoGTP) in wildtype astrocytes” value is “activated Rho”.
Turning to “LIF: Leukemia inhibitory factor, inflammatory cytokine”, the “upregulation of EphA4 expression” value in the assay with EphA4 [1] came to 69%. For the same molecule, the “upregulation of EphA4 phosphorylation” value with EphA4 [2] was found to be 2 fold. Besides, in the assay with astrocytes, the “proliferation response of EphA4−/− astrocytes” value is recorded as “markedly decreased” and the “proliferation of WT astrocytes” value is listed as “increased proliferation”.
For the molecule TNFα, in the assay with EphA4 [1], the “upregulation of EphA4 expression” value was “no effect”.

B1: IFNγ: Interferon-γ, inflammatory cytokine, inducer of astrocytic gliosis (protein, UniProt P01579 24-161, looked up)
Interferon gamma: QDPYVKEAENLKKYFNAGHSDVADNGTLFLGILKNWKEESDRKIMQSQIVSFYFKLFKNFKDDQSIQKSVETIKEDMNVKFFNSNKKKRDDFEKLTNYSVTDLNVQRKAIHELIQVMAELSPAAKTGKRKRSQMLFRG
For the molecule B1, the “upregulation of EphA4 phosphorylation” value in the assay with EphA4 [2] is reported as 2 fold.
